Assays:
[1] = Hydrolysis in PBS 0.1 M at pH 6.8 (intestinal pH), 37 °C; format: physicochemical; conditions: pH 6.8, 37 °C; for half-life at 5 µM: 0.1 M PBS buffer, 5 µM compound; for kII (hydrolysis rate constant, di- to monosubstituted) / kIII (hydrolysis rate constant, tri- to disubstituted): pseudo-first order fit
Protocol: (§1) Kinetic analysis of the data was performed by assuming that hydrolysis to resveratrol occurred via consecutive losses of the three protecting groups in pseudo-first order processes and by considering each pair of isomeric intermediates (potentially) resulting from the first and second hydrolysis steps as a single species, i.e. the two monosubstituted and the two disubstituted intermediates were handled as species I and II, respectively (Scheme 3).
As hydrolysis proceeds resveratrol will eventually form with the kinetics dictated by the constants, up to 100% conversion. The fit of the experimental data was obtained using a set of equations analogous to those utilized by Kozerski et al. and in our previous work.
The chemical stability of all new compounds was tested in aqueous media imitating gastric (0.1 N HCl, NormaFix) and intestinal (0.1 M PBS buffer, at pH 6.8) pH conditions. A 5 µM solution of the compound was prepared from a 5 mM stock solution in DMSO, and incubated at 37 °C for 24 h; samples withdrawn at different times were analyzed by HPLC-UV. Hydrolysis products were identified by HPLC/ESI-MS analysis of selected samples. Non-linear curve fitting was performed using Origin 8.0 data analysis software, using the equations described in [61, 62].

[2] = Stability (hydrolysis) in rodent whole blood, 37 °C; format: in vitro ADME; conditions: rat blood; for kIII (hydrolysis rate constant, tri- to disubstituted): pseudo-first order fit; for half-life at 5 µM: whole blood, 5 µM compound
Protocol: as §1
Rats were anesthetized and blood was withdrawn from the jugular vein, heparinised and transferred into tubes containing EDTA. Blood samples (1 mL) were spiked with 5 µM compound (dilution from a 5 mM stock solution in DMSO), and incubated at 37 °C for 4 h (the maximum period allowed by blood stability). Aliquots were taken after 10 min, 30 min, 1 h, 2 h and 4 h and treated as described below (blood sample treatment and analysis). Cleared blood samples were finally subjected to HPLC-UV analysis.
(§2) Before starting the treatment, 4,4′-dihydroxybiphenyl was added as internal standard to a carefully-measured blood volume (25 µM final concentration). Blood was then stabilized with a freshly-prepared 10 mM solution of ascorbic acid (0.1 vol) and acidified with 0.6 M acetic acid (0.1 vol); after mixing, an excess of acetone (4 vol) was added, followed by sonication (2 min) and centrifugation (12,000× g, 7 min, 4 °C). The supernatant was finally collected and stored at −20 °C. Before analysis, acetone was allowed to evaporate at room temperature using a Univapo 150H (UniEquip, Martinsried, Germany) vacuum concentrator centrifuge, and up to 40 μL of CH3CN were added to precipitate residual proteins. After centrifugation (12,000× g, 5 min, 4 °C), cleared samples were directly subjected to HPLC-UV analysis. Metabolites and hydrolysis products were identified by comparison of chromatographic retention time with true samples.

[3] = Pharmacokinetic study after single intragastric bolus to rats; format: in vivo, male Wistar rats; conditions: rat, single intragastric bolus 88 µmol/kg; for Tmax: male, Wistar, whole blood, po, 88 umol/kg, read-out: time of peak blood level after administration (converted); for peak blood concentration of prodrug (absorption): N = 3
Protocol: All the N-monosubstituted methoxy-oligo(ethylene glycol) carbamate ester prodrugs were tested for their in vivo absorption and metabolism. Pharmacokinetic studies were performed with rats, and each compound was administered as a single intragastric bolus, in an equimolar dose/kg body weight (88 µmol/kg). Blood samples were taken at different time points, treated as described in the Materials and Methods section and analyzed.
as §2
Derivatives 2–4 were administered to overnight-fasted male Wistar rats from the facility of the Department of Biomedical Sciences, University of Padova, as a single intragastric dose (88 µmol/kg, dissolved in 250 µL DMSO) delivered with a commercial stainless steel feeding tube (www.2biol.com) to have a precise starting time. Wistar rats are commonly used for such studies (e.g., [60]). Relatively young adults (3–5 months) were used in order to have a fully developed metabolism as well as a body weight (300–400 g) which would limit the amount of synthetic compound to be used.
Blood samples were obtained by the tail bleeding technique: before drug administration, rats were anesthetized with isoflurane and the tip of the tail was cut off; blood samples (80–100 µL each) were then taken from the tail tip at different time points after drug administration. Blood was collected in heparinized tubes, kept in ice and treated as described above within 10 min. All experiments involving animals were performed with the permission and supervision of the University of Padova Ethical Committee for Experimentation on Animals (CEASA) and Central Veterinary Service, in compliance with Italian Law DL 116/92, embodying EU Directive 86/609. Significance in comparisons was assessed using the Wilcoxon Rank Test.

| SMILES | half-life at 5 µM [1] [min] | kII (hydrolysis rate constant, di- to monosubstituted) [1] [h⁻¹] | kIII (hydrolysis rate constant, tri- to disubstituted) [1] [h⁻¹] | kIII (hydrolysis rate constant, tri- to disubstituted) [2] [h⁻¹] | half-life at 5 µM [2] [min] | appearance of resveratrol, derivatives or metabolites (stilbene derivatives) in blood samples [3] | Tmax [3] [min] | peak blood concentration of prodrug (absorption) [3] [µM] |
| --- | --- | --- | --- | --- | --- | --- | --- | --- |
| COCCOCCOCCNC(=O)Oc1ccc(/C=C/c2cc(OC(=O)NCCOCCOCCOC)cc(OC(=O)NCCOCCOCCOC)c2)cc1 [Compound 2, (E)-5-(4-(2-(2-(2-Methoxyethoxy)ethoxy)ethyl)carbamate)-1,3-phenylene bis((2-(2-(2-methoxyethoxy)ethoxy)ethyl)carbamate)] | 360 | 0.030 ± 0.002 | 0.104 ± 0.002 | 1.47 ± 0.08 | 30 | did not result in the appearance of detectable amounts | – | – |
| COCCOCCOCCOCCNC(=O)Oc1ccc(/C=C/c2cc(OC(=O)NCCOCCOCCOCCOC)cc(OC(=O)NCCOCCOCCOCCOC)c2)cc1 [Compound 3, (E)-5-(4-(5,8,11-Tetraoxatridecan-13-ylcarbamate)styryl)-1,3-phenylene bis(2,5,8,11-tetraoxatridecan-13-ylcarbamate)] | 210 | 0.042 ± 0.005 | 0.134 ± 0.007 | 2.0 ± 0.2 | 18 | measurable levels | 10 | 0.3 |
| COCCOCCOCCOCCOCCOCCNC(=O)Oc1ccc(/C=C/c2cc(OC(=O)NCCOCCOCCOCCOCCOCCOC)cc(OC(=O)NCCOCCOCCOCCOCCOCCOC)c2)cc1 [Compound 4, (E)-5-(4-(2,5,8,11,14,17-Hexaoxanonadecan-19-ylcarbamate)styryl)-1,3-phenylene bis(2,5,8,11,14,17-hexaoxanonadecan-19-ylcarbamate)] | 270 | 0.051 ± 0.001 | 0.158 ± 0.002 | 1.25 ± 0.08 | 30 | measurable levels | 10 | 0.1 |
